Results on 1 compound are retold here after ChEMBL document CHEMBL5316268 (J Med Chem, 2023).

Structures are written as SMILES. pIC50: −log10 of the molar value. ≈ marks a conversion by molar mass, not a printed value. Calls of active or inactive are those of the source. The rule behind the calls is not given here.

In data set [1] the target is T1, 5'-nucleotidase (Homo sapiens, UniProt P21589). Kind of data set: Inhibition of CD73 in human plasma incubated for 15 mins in presence of 15N5-AMP by LC/MS analysis. Format: cell-free.
T1 sequence (P21589 whole entry): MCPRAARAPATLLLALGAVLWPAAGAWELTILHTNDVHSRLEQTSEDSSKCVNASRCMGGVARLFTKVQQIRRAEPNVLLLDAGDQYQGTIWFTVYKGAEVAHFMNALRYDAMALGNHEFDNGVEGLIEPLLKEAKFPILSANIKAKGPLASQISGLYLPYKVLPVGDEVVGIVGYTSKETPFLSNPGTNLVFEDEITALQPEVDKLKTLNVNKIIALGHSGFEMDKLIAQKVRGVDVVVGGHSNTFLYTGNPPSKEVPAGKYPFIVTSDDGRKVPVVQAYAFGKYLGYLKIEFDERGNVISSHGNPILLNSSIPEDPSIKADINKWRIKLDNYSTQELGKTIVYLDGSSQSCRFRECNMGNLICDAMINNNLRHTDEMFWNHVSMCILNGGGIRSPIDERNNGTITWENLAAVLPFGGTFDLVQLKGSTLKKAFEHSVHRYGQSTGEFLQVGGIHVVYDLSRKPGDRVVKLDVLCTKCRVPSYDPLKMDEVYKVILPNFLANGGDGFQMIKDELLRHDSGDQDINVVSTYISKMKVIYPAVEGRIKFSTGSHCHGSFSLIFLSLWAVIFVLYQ
A short description of data set [2]: Oral bioavailability in CD rat at 50 mg/kg measured for 24 hrs by LC-MS/MS analysis. As to conditions: in vivo, po, 50 mg/kg, 24 h. Format: ADME, organism-based.
Data set [3] addresses T2, 5'-nucleotidase (Mus musculus, UniProt Q61503).
T2 sequence (Q61503 whole entry): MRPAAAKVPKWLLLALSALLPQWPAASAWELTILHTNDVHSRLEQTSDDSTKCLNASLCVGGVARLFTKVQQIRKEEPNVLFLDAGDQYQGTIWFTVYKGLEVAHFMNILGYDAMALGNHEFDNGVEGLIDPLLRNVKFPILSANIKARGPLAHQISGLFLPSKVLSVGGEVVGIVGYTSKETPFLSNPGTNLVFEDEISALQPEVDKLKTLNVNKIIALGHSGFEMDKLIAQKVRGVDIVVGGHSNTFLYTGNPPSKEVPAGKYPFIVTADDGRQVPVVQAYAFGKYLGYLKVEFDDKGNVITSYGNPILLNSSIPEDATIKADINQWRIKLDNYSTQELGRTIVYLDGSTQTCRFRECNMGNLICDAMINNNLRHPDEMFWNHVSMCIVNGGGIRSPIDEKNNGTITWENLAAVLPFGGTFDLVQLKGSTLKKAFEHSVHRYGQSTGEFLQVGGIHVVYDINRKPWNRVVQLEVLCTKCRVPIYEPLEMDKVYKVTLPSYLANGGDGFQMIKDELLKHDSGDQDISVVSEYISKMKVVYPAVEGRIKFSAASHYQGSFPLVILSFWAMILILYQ
Put plainly: Inhibition of CD73 in mouse plasma incubated for 5 mins in presence of 15N5-AMP by LC/MS analysis. Format: cell-free.

In data set [4] the target is T1, 5'-nucleotidase. Kind of data set: Inhibition of CD73 in human plasma derived from esophageal cancer patient incubated for 15 mins in presence of 15N5-AMP by LC/MS analysis. Format: cell-free.
Data set [5] is described as follows: Plasma protein binding in rat at 10 uM assessed as bound fraction. The data set is classed as ADME, cell-free. As to conditions: read-out: PPB (converted).
The next data set has as its target T3, Cytochrome P450 1A2 (Homo sapiens, UniProt P05177).
T3 sequence (P05177 whole entry): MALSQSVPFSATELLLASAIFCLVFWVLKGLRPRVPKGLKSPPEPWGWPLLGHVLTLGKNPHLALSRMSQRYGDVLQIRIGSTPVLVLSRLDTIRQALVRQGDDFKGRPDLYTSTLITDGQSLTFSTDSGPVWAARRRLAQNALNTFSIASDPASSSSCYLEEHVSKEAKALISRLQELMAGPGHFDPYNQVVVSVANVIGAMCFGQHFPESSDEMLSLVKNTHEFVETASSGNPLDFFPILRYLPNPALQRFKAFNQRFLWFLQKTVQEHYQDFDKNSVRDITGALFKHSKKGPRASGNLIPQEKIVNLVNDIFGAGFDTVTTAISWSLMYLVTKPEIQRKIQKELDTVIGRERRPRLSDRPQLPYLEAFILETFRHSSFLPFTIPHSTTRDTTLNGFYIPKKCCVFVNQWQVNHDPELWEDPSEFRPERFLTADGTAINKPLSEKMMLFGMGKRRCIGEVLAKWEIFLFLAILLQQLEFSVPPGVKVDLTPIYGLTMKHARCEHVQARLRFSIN
Kind of data set: Inhibition of human CYP1A2 at 10 uM. The data set is classed as ADME.

A short description of data set [6]: Plasma protein binding in human assessed as unbound fraction. Format: ADME, cell-free.
The next data set has as its target T4, Cytochrome P450 2B6 (Homo sapiens, UniProt P20813).
T4 sequence (P20813 whole entry): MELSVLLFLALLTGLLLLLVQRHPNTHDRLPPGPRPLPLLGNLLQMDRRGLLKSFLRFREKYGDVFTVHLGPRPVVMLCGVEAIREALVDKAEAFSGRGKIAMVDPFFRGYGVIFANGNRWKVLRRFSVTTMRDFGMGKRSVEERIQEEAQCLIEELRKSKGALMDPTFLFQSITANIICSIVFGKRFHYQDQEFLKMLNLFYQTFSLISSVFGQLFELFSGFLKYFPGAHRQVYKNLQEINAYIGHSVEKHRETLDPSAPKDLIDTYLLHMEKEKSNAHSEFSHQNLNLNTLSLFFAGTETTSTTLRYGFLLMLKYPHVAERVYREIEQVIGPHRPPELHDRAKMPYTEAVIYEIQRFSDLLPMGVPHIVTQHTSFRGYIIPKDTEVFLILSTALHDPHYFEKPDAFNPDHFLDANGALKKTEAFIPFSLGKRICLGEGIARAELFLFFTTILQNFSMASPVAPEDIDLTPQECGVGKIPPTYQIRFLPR
Put plainly: Inhibition of human CYP2B6 at 10 uM. Format: ADME.

The target of the next data set is T5, Cytochrome P450 2C8 (Homo sapiens, UniProt P10632).
T5 sequence (P10632 whole entry): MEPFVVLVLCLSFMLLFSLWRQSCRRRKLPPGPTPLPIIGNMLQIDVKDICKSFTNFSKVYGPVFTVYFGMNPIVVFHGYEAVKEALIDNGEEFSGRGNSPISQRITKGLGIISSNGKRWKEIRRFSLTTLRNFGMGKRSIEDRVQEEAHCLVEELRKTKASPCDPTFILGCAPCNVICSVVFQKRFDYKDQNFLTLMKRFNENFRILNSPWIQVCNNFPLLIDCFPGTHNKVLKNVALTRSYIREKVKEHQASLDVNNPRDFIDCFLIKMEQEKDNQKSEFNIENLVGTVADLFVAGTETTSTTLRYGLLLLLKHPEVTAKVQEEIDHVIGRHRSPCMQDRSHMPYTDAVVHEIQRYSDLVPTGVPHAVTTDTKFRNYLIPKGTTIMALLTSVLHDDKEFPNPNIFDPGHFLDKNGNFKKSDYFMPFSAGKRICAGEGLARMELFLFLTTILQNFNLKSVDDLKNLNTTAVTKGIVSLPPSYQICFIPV
Put plainly: Inhibition of human CYP2C8 at 10 uM. Format: ADME.

The target in the next data set is Cytochrome P450 2C9 (Homo sapiens, UniProt P11712). Put plainly: Inhibition of human CYP2C9 at 10 uM. Format: ADME.
Chain of Cytochrome P450 2C9 (P11712 whole entry): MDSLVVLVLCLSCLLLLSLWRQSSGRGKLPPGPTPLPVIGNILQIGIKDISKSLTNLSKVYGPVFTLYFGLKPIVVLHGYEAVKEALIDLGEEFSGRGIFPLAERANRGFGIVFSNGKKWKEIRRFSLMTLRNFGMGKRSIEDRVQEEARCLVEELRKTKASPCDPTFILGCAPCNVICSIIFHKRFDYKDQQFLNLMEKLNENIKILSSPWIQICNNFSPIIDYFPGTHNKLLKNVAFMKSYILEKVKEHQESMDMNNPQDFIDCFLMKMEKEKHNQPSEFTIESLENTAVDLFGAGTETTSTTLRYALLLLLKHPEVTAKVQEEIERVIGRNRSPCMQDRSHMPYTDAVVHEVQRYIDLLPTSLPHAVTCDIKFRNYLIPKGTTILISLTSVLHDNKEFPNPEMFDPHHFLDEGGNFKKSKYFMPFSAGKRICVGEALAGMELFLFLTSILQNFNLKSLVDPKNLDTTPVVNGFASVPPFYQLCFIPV
Data set [7] is described as follows: Aqueous solubility of compound at pH 1 to 7. Format: physicochemical. As to conditions: aqueous solution.
A short description of data set [8]: AUC (0 to 24 hrs) in CD rat at 200 mg/kg, po measured for 24 hrs by LC-MS/MS analysis. The data set is classed as ADME, organism-based. Further details: dose 200 mg/kg, time 24 hrs, route po. As to conditions: in vivo.
Data set [9] is described as follows: AUC (0 to 24 hrs) in CD rat at 500 mg/kg, po measured for 24 hrs by LC-MS/MS analysis. More on the design: time 24 hrs, dose 500 mg/kg, route po. Format: ADME, organism-based. As to conditions: in vivo.
Data set [10] is described as follows: Cmax in CD rat at 50 mg/kg, po measured for 24 hrs by LC-MS/MS analysis. Format: ADME, organism-based. Further details: dose 50 mg/kg, time 24 hrs, route po. As to conditions: in vivo.
A short description of data set [11]: Tmax in CD rat at 500 mg/kg, po measured for 24 hrs by LC-MS/MS analysis. The data set is classed as ADME, organism-based. As to conditions: in vivo.
Data set [12] is described as follows: Drug concentration in CD rat plasma at 50 to 500 mg/kg, po measured for 24 hrs by LC-MS/MS analysis. Format: ADME, organism-based. As to conditions: dose 50-500 mg/kg.
The next data set concerns CD8-positive T cell. Put plainly: Reversal of AMP-mediated suppression of human CD8-positive T cells function assessed as increase in IFN-gamma level at 0.01 to 1000 nM measured after 4 days by ELISA. Format: functional, cell-based. As to conditions: dose 0.01-1000 nM, time 4.0 day.

With `C#C[C@@]1(O)[C@@H](COC(Cc2ccc(N3CCCNC3=O)cc2)(C(=O)O)C(=O)O)O[C@@H](n2cnc3c(N)nc(Cl)nc32)[C@@H]1O`, the IC90 on 5'-nucleotidase [1] was found to be 3 nM. In [2], this compound displayed an F of 2.8%. The pIC50 on 5'-nucleotidase [3] was 8.92; at 5'-nucleotidase [4] it was 10.00. Besides, the fraction unbound at 10 µM in [5] is 0.29. The “inhibition (INH)” value on Cytochrome P450 1A2, at Cytochrome P450 2B6, against Cytochrome P450 2C8 and at Cytochrome P450 2C9 was “Not Active” each time. Further, the fraction unbound in data set [6] worked out at 0.42. The compound further showed a solubility in [7] of 3880 µg/mL (≈ 6.3 mM). For the same compound, the AUC(0-t) at 24 h in data set [8] was determined as 6090 ng·h/mL; in data set [9], 18500 ng·h/mL. The same compound displayed a Cmax in data set [10] of 74 nM. Further, the Tmax in [11] came out at 18 min. The compound further had a concentration at 24 h in data set [12] of over 3 nM. Besides, the outcome in the data set with CD8-positive T cell was Active.
